Legend:
Assay in all cases: relative viability (nuclei count vs DMSO), 5 days (fraction); higher = more cells survive
BI-2536 + Olaparib = compound: CC[C@@H]1C(=O)N(C)c2cnc(Nc3ccc(C(=O)NC4CCN(C)CC4)cc3OC)nc2N1C1CCCC1 [BI-2536] + O=C(c1cc(Cc2n[nH]c(=O)c3ccccc23)ccc1F)N1CCN(C(=O)C2CC2)CC1 [Olaparib] (partner 8 µM)
Procedure, shortened: (§1)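 Lung cancer cell lines, seeded in 1536-well plates, were treated the following day by pin tool with a single drug or with five library-drug doses (not always all listed) in √10 steps on top of a fixed anchor-drug dose. Cells were fixed and nuclei stained in one step after 5 days, and nuclei were counted. Relative viability is the nuclei count for treated wells divided by that for vehicle wells, reported as medians of duplicate plates.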

BI-2536 + Crizotinib = compound: CC[C@@H]1C(=O)N(C)c2cnc(Nc3ccc(C(=O)NC4CCN(C)CC4)cc3OC)nc2N1C1CCCC1 [BI-2536] + C[C@@H](Oc1cc(-c2cnn(C3CCNCC3)c2)cnc1N)c1c(Cl)ccc(F)c1Cl [Crizotinib] (partner 1 µM)
Procedure, shortened: as §1

[1] = compound: CC1CC(=O)N(C2=CN=C(N=C2N1C3CCCC3)NC4=C(C=C(C=C4)C(=O)NC5CCN(CC5)C)OC)C [NPK76-II-72-1] + C[C@]1(O)C[C@@H](c2nc(-c3ccc4ccc(-c5ccccc5)nc4c3)c3c(N)nccn32)C1 [Linsitinib] (partner 1 µM)
Procedure, shortened: as §1

BI-2536 + Pemetrexed = compound: CC[C@@H]1C(=O)N(C)c2cnc(Nc3ccc(C(=O)NC4CCN(C)CC4)cc3OC)nc2N1C1CCCC1 [BI-2536] + Nc1nc2[nH]cc(CCc3ccc(C(=O)N[C@@H](CCC(=O)O)C(=O)O)cc3)c2c(=O)[nH]1 [Pemetrexed] (partner 0.2 µM)
Procedure, shortened: as §1

Cell Line	relative viability (BI-2536 + Olaparib; first compound 0.01 µM)	relative viability (BI-2536 + Olaparib; first compound 0.03162 µM)	relative viability (BI-2536 + Olaparib; first compound 0.1 µM)	relative viability (BI-2536 + Olaparib; first compound 0.3162 µM)	relative viability (BI-2536 + Olaparib; first compound 1 µM)	relative viability (BI-2536 + Crizotinib; first compound 0.01 µM)	relative viability (BI-2536 + Crizotinib; first compound 0.03162 µM)	relative viability (BI-2536 + Crizotinib; first compound 0.1 µM)	relative viability (BI-2536 + Crizotinib; first compound 0.3162 µM)	relative viability (BI-2536 + Crizotinib; first compound 1 µM)	relative viability ([1]; first compound 0.01 µM)	relative viability ([1]; first compound 0.03162 µM)	relative viability ([1]; first compound 0.1 µM)	relative viability ([1]; first compound 0.3162 µM)	relative viability ([1]; first compound 1 µM)	relative viability (BI-2536 + Pemetrexed; first compound 0.01 µM)	relative viability (BI-2536 + Pemetrexed; first compound 0.03162 µM)	relative viability (BI-2536 + Pemetrexed; first compound 0.1 µM)	relative viability (BI-2536 + Pemetrexed; first compound 0.3162 µM)	relative viability (BI-2536 + Pemetrexed; first compound 1 µM)
NCI-H1993	1.04	0.861	0.749	0.471	0.486	0.945	0.906	0.621	0.57	0.693	0.728	0.768	0.576	0.657	0.778	0.64	0.569	0.421	0.393	0.435
NCI-H520	0.284	0.217	0.228	0.162	0.168	0.764	0.323	0.202	0.184	0.117	0.753	0.83	0.804	0.922	1.07	0.666	0.32	0.204	0.179	0.189
NCI-H647	0.481	0.281	0.107	0.0584	0.0662	1.15	0.418	0.425	0.113	0.115	1.2	1.28	–	1.07	1.14	0.179	0.148	0.113	0.0907	0.0929
NCI-H1792	0.543	0.374	0.316	0.0436	0.0344	1.04	0.815	1.01	0.417	0.17	0.615	0.629	0.52	0.492	0.591	0.779	0.792	0.328	0.0539	0.0316
SK-LU-1	0.418	0.503	0.302	0.179	0.167	0.857	0.51	0.357	0.299	0.279	1.07	1.09	1.16	1.02	1.33	0.94	0.938	0.392	0.265	0.243
NCI-H2009	0.665	0.54	0.45	0.114	0.126	0.962	0.696	0.287	0.191	0.16	1.18	1.18	1.08	1.2	1.15	1.07	1	0.674	0.223	0.274
LOU-NH91	0.934	0.728	0.612	0.336	0.28	0.697	0.671	0.719	0.325	0.307	0.941	0.932	0.984	0.681	1.04	0.38	0.39	0.284	0.26	0.336
NCI-H2405	0.855	0.547	0.325	0.281	0.416	0.807	0.778	0.532	0.223	0.312	0.88	1.01	0.905	0.819	1.08	1.07	0.992	0.375	0.342	0.457
LCLC-97TM1	0.463	0.292	0.233	0.0868	0.0916	0.249	0.303	0.2	0.168	0.105	–	0.16	0.167	0.192	0.156	0.176	0.159	0.0973	0.0981	0.0935
NCI-H596	0.731	0.731	0.59	0.423	0.295	0.948	1.05	0.938	0.493	0.443	1.02	1.14	1.06	1.13	1.09	0.528	0.491	0.487	0.277	0.29
H3255	0.529	0.401	0.406	0.298	0.275	0.909	0.763	0.515	0.196	0.24	0.973	0.994	0.915	0.677	1.14	0.543	0.528	0.492	0.248	0.268
SK-MES-1	0.72	0.656	0.199	0.165	0.177	0.997	1.01	0.86	0.212	0.18	1.05	1.07	0.994	0.995	1.15	0.912	0.887	0.66	0.205	0.197
NCI-H1437	0.6	0.494	0.339	0.23	0.247	0.812	0.593	0.418	0.117	0.116	0.973	1.08	0.986	0.802	1.07	0.321	0.288	0.267	0.227	0.212
LU99A	0.23	0.24	0.192	0.137	0.149	0.527	0.526	0.218	0.212	0.184	0.57	0.522	0.584	0.479	0.518	0.225	0.193	0.165	0.152	0.143
HCC-827	0.693	0.611	0.531	0.214	0.194	0.926	0.968	0.714	0.328	0.305	0.891	0.91	0.939	0.855	1.01	0.232	0.253	0.224	0.227	0.187
LK-2	0.578	0.491	0.28	0.098	0.134	0.245	0.237	0.202	0.177	0.245	0.543	0.69	0.729	0.415	0.743	0.249	0.249	0.0925	0.0896	0.1

Reference: the supplement of paper PMC10307832
